Values joined by “and” are separate entries in the source; they are usually repeats but may differ in a detail not shown here. Equal values may be shown once.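 Results reflect a 48-hour exposure of cells in 96-well plates to compound at five concentrations. Abbreviation: GI50, concentration required for 50% inhibition of growth.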 Active and inactive are the calls of the source. Cut-off read from the data, not from the text of the source: active = GI50 up to about 1.1 µM and inactive = higher.
Key:
Experiment in all cases: inhibition of tumour cell growth, NCI panel, 48 h
786-0 = system: 786-0
A498 = system: A498
A549 = system: A549
ACHN = system: ACHN
CAKI-1 = system: CAKI-1
CCRF-CEM = system: CCRF-CEM
COLO 205 = system: COLO 205
DLD-1 = system: DLD-1
DMS-114 = system: DMS-114
DMS-273 = system: DMS-273
EKVX = system: EKVX
HCC 2998 = system: HCC 2998
HCT-116 = system: HCT-116
HCT-15 = system: HCT-15
HL-60 = system: HL-60
HOP-18 = system: HOP-18
HOP-62 = system: HOP-62
HOP-92 = system: HOP-92
HT-29 = system: HT-29
IGROV-1 = system: IGROV-1
K562 = system: K562
KM-20L2 = system: KM-20L2
KM12 = system: KM12
LOX IMVI = system: LOX IMVI
LXFL 529 = system: LXFL 529
M14 = system: M14
M19-MEL = system: M19-MEL
MOLT-4 = system: MOLT-4
Malme-3M = system: Malme-3M
NCI-H226 = system: NCI-H226
NCI-H23 = system: NCI-H23
NCI-H460 = system: NCI-H460
NCI-H522 = system: NCI-H522
OVCAR-3 = system: OVCAR-3
OVCAR-4 = system: OVCAR-4
OVCAR-5 = system: OVCAR-5
OVCAR-8 = system: OVCAR-8
RPMI-8226 = system: RPMI-8226
RXF 393 = system: RXF 393
RXF 631 = system: RXF 631
SF-268 = system: SF-268
SF-295 = system: SF-295
SF-539 = system: SF-539
SK-MEL-28 = system: SK-MEL-28
SK-MEL-2 = system: SK-MEL-2
SK-MEL-5 = system: SK-MEL-5
SK-OV-3 = system: SK-OV-3
SN12C = system: SN12C
SNB-19 = system: SNB-19
SNB-75 = system: SNB-75
SNB-78 = system: SNB-78
SR = system: SR
SW-620 = system: SW-620
TK-10 = system: TK-10
U-251 = system: U-251
UACC-257 = system: UACC-257
UACC-62 = system: UACC-62
UO-31 = system: UO-31
XF498 = system: XF498
Hs-578T = system: Hs-578T
MCF7 = system: MCF7
MDA-N = system: MDA-N
NCI/ADR-RES = system: NCI/ADR-RES
PC-3 = system: PC-3

For `O=C1OC(CC(=O)c2ccc(Cl)cc2Cl)C(Cl)=C1Cl` (stereo not drawn), which GI50 (786-0) is on record?
The GI50 was 21.9 µM (inactive).

What about the GI50 (A498) of the same compound?
The GI50 was > 100 µM (inactive).

And the GI50 (A549)?
The GI50 was > 100 µM (inactive).

And the GI50 (ACHN)?
Its GI50 is > 41.1 µM (inactive).

And the GI50 (CAKI-1)?
Its GI50 is 30.8 µM (inactive).

And the GI50 (CCRF-CEM)?
Its GI50 is 25.7 µM (inactive).

And the GI50 (COLO 205)?
Its GI50 is 20.8 µM (inactive).

And the GI50 (DLD-1)?
The GI50 was 22.4 µM (inactive).

And the GI50 (DMS-114)?
Its GI50 is 18.4 µM (inactive).

And the GI50 (DMS-273)?
Its GI50 is 39 µM (inactive).

What about the GI50 (EKVX) of the same compound?
Its GI50 is > 54.7 µM (inactive).

And the GI50 (HCC 2998)?
Its GI50 is 15.8 µM (inactive).

And the GI50 (HCT-116)?
Its GI50 is 18.2 µM (inactive).

And the GI50 (HCT-15)?
Its GI50 is 29.3 µM.

And the GI50 (HL-60)?
Its GI50 is 26.7 µM (inactive).

What about the GI50 (HOP-18) of the same compound?
Its GI50 is > 100 µM (inactive).

What about the GI50 (HOP-62) of the same compound?
Its GI50 is > 59.2 µM (inactive).

And the GI50 (HOP-92)?
The GI50 was 18.9 µM (inactive).

And the GI50 (HT-29)?
Its GI50 is 18.7 µM (inactive).

And the GI50 (IGROV-1)?
The GI50 was > 41 µM (inactive).

And the GI50 (K562)?
The GI50 was 29.1 µM (inactive).

What about the GI50 (KM-20L2) of the same compound?
Its GI50 is 21.1 µM (inactive).

What about the GI50 (KM12) of the same compound?
The GI50 was > 100 µM (inactive).

What about the GI50 (LOX IMVI) of the same compound?
Its GI50 is 24.5 µM (inactive).

And the GI50 (LXFL 529)?
Its GI50 is 17.1 µM (inactive).

What about the GI50 (M14) of the same compound?
Its GI50 is 27.2 µM (inactive).

What about the GI50 (M19-MEL) of the same compound?
The GI50 was 20 µM (inactive).

And the GI50 (MOLT-4)?
The GI50 was 24.8 µM (inactive).

What about the GI50 (Malme-3M) of the same compound?
The GI50 was 19.7 µM (inactive).

And the GI50 (NCI-H226)?
Its GI50 is 30 µM (inactive).

And the GI50 (NCI-H23)?
The GI50 was 28.9 µM (inactive).

What about the GI50 (NCI-H460) of the same compound?
The GI50 was > 57.3 µM (inactive).

What about the GI50 (NCI-H522) of the same compound?
The GI50 was 17.6 µM (inactive).

What about the GI50 (OVCAR-3) of the same compound?
The GI50 was 33.8 µM (inactive).

And the GI50 (OVCAR-4)?
The GI50 was 42.6 µM (inactive).

And the GI50 (OVCAR-5)?
The GI50 was > 45.1 µM (inactive).

What about the GI50 (OVCAR-8) of the same compound?
The GI50 was 27.2 µM (inactive).

What about the GI50 (RPMI-8226) of the same compound?
The GI50 was 26.9 µM (inactive).

And the GI50 (RXF 393)?
Its GI50 is 18.2 µM (inactive).

What about the GI50 (RXF 631) of the same compound?
The GI50 was 31.1 µM (inactive).

What about the GI50 (SF-268) of the same compound?
Its GI50 is 25.2 µM (inactive).

And the GI50 (SF-295)?
Its GI50 is > 100 µM (inactive).

What about the GI50 (SF-539) of the same compound?
Its GI50 is 22 µM (inactive).

And the GI50 (SK-MEL-28)?
Its GI50 is 19.1 µM (inactive).

What about the GI50 (SK-MEL-2) of the same compound?
The GI50 was 19.8 µM (inactive).

What about the GI50 (SK-MEL-5) of the same compound?
Its GI50 is 45.6 µM (inactive).

And the GI50 (SK-OV-3)?
Its GI50 is > 36.1 µM (inactive).

And the GI50 (SN12C)?
Its GI50 is 18.9 µM (inactive).

And the GI50 (SNB-19)?
Its GI50 is > 49.2 µM (inactive).

And the GI50 (SNB-75)?
Its GI50 is > 43.7 µM (inactive).

And the GI50 (SNB-78)?
Its GI50 is 33.1 µM (inactive).

What about the GI50 (SR) of the same compound?
The GI50 was 26.5 µM (inactive).

And the GI50 (SW-620)?
Its GI50 is 19.4 µM (inactive).

And the GI50 (TK-10)?
The GI50 was > 55.5 µM (inactive).

What about the GI50 (U-251) of the same compound?
The GI50 was 27.6 µM (inactive).

What about the GI50 (UACC-257) of the same compound?
Its GI50 is > 100 µM (inactive).

What about the GI50 (UACC-62) of the same compound?
Its GI50 is 17 µM (inactive).

And the GI50 (UO-31)?
The GI50 was > 42.6 µM (inactive).

What about the GI50 (XF498) of the same compound?
Its GI50 is 21.3 µM (inactive).

What does the source list for `COc1cccc2c1C(=O)c1c(O)c3c(c(O)c1C2=O)C[C@@](O)(C(C)=O)C[C@@H]3OC1CC(N)C(O)C(C)O1` (stereo partly drawn)?
GI50 (786-0): < 17.8 nM (active) and 32.6 nM (active); GI50 (A498): 146 nM (active) and 197 nM (active); GI50 (CAKI-1): 81.8 nM (active) and 99.1 nM (active); GI50 (CCRF-CEM): < 10 nM (active) and 12.8 nM (active); GI50 (COLO 205): 156 nM (active) and 142 nM (active); GI50 (DLD-1): 0.309 µM (active); GI50 (DMS-114): 0.0371 µM (active); GI50 (DMS-273): 0.0889 µM (active); GI50 (HCC 2998): 154 nM (active) and 167 nM (active); GI50 (HCT-15): 0.721 µM and 0.689 µM; GI50 (HL-60): < 11.4 nM (active) and 12.3 nM (active); GI50 (HOP-18): 0.118 µM (active); GI50 (Hs-578T): 168 nM (active) and 192 nM (active); GI50 (KM-20L2): 0.194 µM (active); GI50 (LOX IMVI): < 13.1 nM (active) and 24.9 nM (active); GI50 (LXFL 529): 0.0743 µM (active); GI50 (M19-MEL): 0.08 µM (active); GI50 (MCF7): 0.00889 µM (active); GI50 (MDA-N): 168 nM (active) and 98.9 nM (active); GI50 (MOLT-4): < 10 nM (active) and 6.34 nM (active); GI50 (Malme-3M): 30.3 nM (active) and 54.3 nM (active); GI50 (NCI-H226): 24 nM (active) and 34.6 nM (active); GI50 (NCI-H460): < 10 nM (active) and 5.94 nM (active); GI50 (NCI/ADR-RES): 2.42 µM (inactive) and 4.61 µM (inactive); GI50 (OVCAR-5): 201 nM (active) and 238 nM (active); GI50 (PC-3): 48 nM (active) and 78.9 nM (active); GI50 (RXF 631): 0.115 µM (active); GI50 (SF-539): 39.1 nM (active) and 48.3 nM (active); GI50 (SK-MEL-28): 167 nM (active) and 303 nM (active); GI50 (SNB-78): 0.292 µM (active); GI50 (SR): 8.39 nM (active) and < 13.5 nM (active); GI50 (SW-620): < 16.7 nM (active) and 22.9 nM (active); GI50 (UO-31): 412 nM (active) and 413 nM (active); GI50 (XF498): 0.069 µM (active)

From ChEMBL document CHEMBL1201862, “PubChem BioAssay data set” (2004)
